≈ marks a conversion by molar mass, not a printed value. Like-named read-outs stand apart in the source and are kept apart here.
Experiment: Approximate solubility of pomalidomide at 50°C in 96 solvent compositions (LC)
Type: physicochemical
Conditions: 50 °C, organic solvent or mixture, thermodynamic from solid
Protocol: Pomalidomide Solid Form Preparations: Preparation of solid form of pomalidomide was conducted by equilibrating pomalidomide in 96 solvent compositions at 50°C and subjected to four conditions: slurry, evaporation, cooling, and precipitation. […] Solvents were then added, as binary gradients consisting of main solvent and co-solvent, to give a total of 150 µl, in each of the 96 vials (see Table 6 for the exact composition of each vial). […] For each of the evaporation, precipitation, and cooling experiments, approximately 8 mg of a solid sample of pomalidomide (e.g., Form A) was delivered to each position of the plate. Solvents were added to the master plate, as binary gradients consisting of main solvent and co-solvent, to give a total volume of 800 µT in each of the 96 vials (see Table 7 for the exact composition of each vial). The master plate, containing pomalidomide and solvents, was then equilibrated by stirring for 2 hours at 50°C. Upon completion of the equilibration cycle, the supernatant was aspirated into a four-tipped needle assembly and transferred to a sealed parallel filtration assembly. The mixtures were forced through the filtration assembly using positive pressure and the filtrates were collected in an array of glass vials. The filtered solutions were subsequently aspirated into the four-tipped assembly and aliquots were dispensed to an array of glass vials for subsequent LC analysis to determine approximate concentrations of pomalidomide in each solvent composition at the beginning of the experiments (Table 8). Both the four-tipped needle assembly and filtration assembly were maintained at the equilibration temperature of 50°C throughout the entire transfer process.
The results correspond to the solvent systems described in Table 7, equilibrated at 50°C for 2 hours. […] The approximate concentrations were determined by LC.

In the case of `Nc1cccc2c1C(=O)N(C1CCC(=O)NC1=O)C2=O` (centres unmarked) [Pomalidomide, 4-amino-2-(2,6-dioxopiperidine-3-yl)isoindoline-1,3-dione], the solubility at 2 h (binary solvent composition (main solvent and co-solvent), solvent system A4 of Table 7, read-out: Approximate Measured Solubility) is reported as 1440 µg/mL (≈ 5270 µM), the solubility at 2 h (binary solvent composition (main solvent and co-solvent), solvent system A5 of Table 7, read-out: Approximate Measured Solubility) is reported as 800 µg/mL (≈ 2930 µM) and the solubility at 2 h (binary solvent composition (main solvent and co-solvent), solvent system A6 of Table 7, read-out: Approximate Measured Solubility) is reported as 280 µg/mL (≈ 1020 µM). It also gave a solubility at 2 h (binary solvent composition (main solvent and co-solvent), solvent system A7 of Table 7, read-out: Approximate Measured Solubility) of 6980 µg/mL (≈ 25500 µM), a solubility at 2 h (binary solvent composition (main solvent and co-solvent), solvent system A8 of Table 7, read-out: Approximate Measured Solubility) of 7940 µg/mL (≈ 29100 µM) and a solubility at 2 h (binary solvent composition (main solvent and co-solvent), solvent system A9 of Table 7, read-out: Approximate Measured Solubility) of 4410 µg/mL (≈ 16100 µM). For the same molecule, the solubility at 2 h (binary solvent composition (main solvent and co-solvent), solvent system B1 of Table 7, read-out: Approximate Measured Solubility) was 230 µg/mL (≈ 842 µM), the solubility at 2 h (binary solvent composition (main solvent and co-solvent), solvent system B2 of Table 7, read-out: Approximate Measured Solubility) was 790 µg/mL (≈ 2890 µM) and the solubility at 2 h (binary solvent composition (main solvent and co-solvent), solvent system B3 of Table 7, read-out: Approximate Measured Solubility) was 1030 µg/mL (≈ 3770 µM). The solubility at 2 h (binary solvent composition (main solvent and co-solvent), solvent system B4 of Table 7, read-out: Approximate Measured Solubility) was 220 µg/mL (≈ 805 µM), the solubility at 2 h (binary solvent composition (main solvent and co-solvent), solvent system B5 of Table 7, read-out: Approximate Measured Solubility) was 360 µg/mL (≈ 1320 µM) and the solubility at 2 h (binary solvent composition (main solvent and co-solvent), solvent system B6 of Table 7, read-out: Approximate Measured Solubility) was 150 µg/mL (≈ 549 µM). The solubility at 2 h (binary solvent composition (main solvent and co-solvent), solvent system B7 of Table 7, read-out: Approximate Measured Solubility) was 3160 µg/mL (≈ 11600 µM), the solubility at 2 h (binary solvent composition (main solvent and co-solvent), solvent system B8 of Table 7, read-out: Approximate Measured Solubility) was 1720 µg/mL (≈ 6290 µM) and the solubility at 2 h (binary solvent composition (main solvent and co-solvent), solvent system B9 of Table 7, read-out: Approximate Measured Solubility) was 920 µg/mL (≈ 3370 µM). For the same molecule, the solubility at 2 h (binary solvent composition (main solvent and co-solvent), solvent system B10 of Table 7, read-out: Approximate Measured Solubility) was 480 µg/mL (≈ 1760 µM), the solubility at 2 h (binary solvent composition (main solvent and co-solvent), solvent system B11 of Table 7, read-out: Approximate Measured Solubility) was 180 µg/mL (≈ 659 µM) and the solubility at 2 h (binary solvent composition (main solvent and co-solvent), solvent system C1 of Table 7, read-out: Approximate Measured Solubility) was 620 µg/mL (≈ 2270 µM). For the same molecule, the solubility at 2 h (binary solvent composition (main solvent and co-solvent), solvent system C2 of Table 7, read-out: Approximate Measured Solubility) was 1410 µg/mL (≈ 5160 µM), the solubility at 2 h (binary solvent composition (main solvent and co-solvent), solvent system C3 of Table 7, read-out: Approximate Measured Solubility) was 1670 µg/mL (≈ 6110 µM) and the solubility at 2 h (binary solvent composition (main solvent and co-solvent), solvent system C4 of Table 7, read-out: Approximate Measured Solubility) was 480 µg/mL (≈ 1760 µM). For the same molecule, the solubility at 2 h (binary solvent composition (main solvent and co-solvent), solvent system C5 of Table 7, read-out: Approximate Measured Solubility) was 470 µg/mL (≈ 1720 µM), the solubility at 2 h (binary solvent composition (main solvent and co-solvent), solvent system C6 of Table 7, read-out: Approximate Measured Solubility) was 260 µg/mL (≈ 952 µM) and the solubility at 2 h (binary solvent composition (main solvent and co-solvent), solvent system C7 of Table 7, read-out: Approximate Measured Solubility) was 3710 µg/mL (≈ 13600 µM). The solubility at 2 h (binary solvent composition (main solvent and co-solvent), solvent system C8 of Table 7, read-out: Approximate Measured Solubility) was 2970 µg/mL (≈ 10900 µM), the solubility at 2 h (binary solvent composition (main solvent and co-solvent), solvent system C9 of Table 7, read-out: Approximate Measured Solubility) was 1840 µg/mL (≈ 6730 µM) and the solubility at 2 h (binary solvent composition (main solvent and co-solvent), solvent system C10 of Table 7, read-out: Approximate Measured Solubility) was 1090 µg/mL (≈ 3990 µM). The solubility at 2 h (binary solvent composition (main solvent and co-solvent), solvent system C11 of Table 7, read-out: Approximate Measured Solubility) was 490 µg/mL (≈ 1790 µM), the solubility at 2 h (binary solvent composition (main solvent and co-solvent), solvent system C12 of Table 7, read-out: Approximate Measured Solubility) was 340 µg/mL (≈ 1240 µM) and the solubility at 2 h (binary solvent composition (main solvent and co-solvent), solvent system D1 of Table 7, read-out: Approximate Measured Solubility) was 1530 µg/mL (≈ 5600 µM). For the same molecule, the solubility at 2 h (binary solvent composition (main solvent and co-solvent), solvent system D2 of Table 7, read-out: Approximate Measured Solubility) was 670 µg/mL (≈ 2450 µM), the solubility at 2 h (binary solvent composition (main solvent and co-solvent), solvent system D3 of Table 7, read-out: Approximate Measured Solubility) was 3460 µg/mL (≈ 12700 µM) and the solubility at 2 h (binary solvent composition (main solvent and co-solvent), solvent system D4 of Table 7, read-out: Approximate Measured Solubility) was 2500 µg/mL (≈ 9150 µM). It also gave a solubility at 2 h (binary solvent composition (main solvent and co-solvent), solvent system D5 of Table 7, read-out: Approximate Measured Solubility) of 1940 µg/mL (≈ 7100 µM), a solubility at 2 h (binary solvent composition (main solvent and co-solvent), solvent system D6 of Table 7, read-out: Approximate Measured Solubility) of 490 µg/mL (≈ 1790 µM) and a solubility at 2 h (binary solvent composition (main solvent and co-solvent), solvent system D7 of Table 7, read-out: Approximate Measured Solubility) of 3700 µg/mL (≈ 13500 µM). It also gave a solubility at 2 h (binary solvent composition (main solvent and co-solvent), solvent system D8 of Table 7, read-out: Approximate Measured Solubility) of 2310 µg/mL (≈ 8450 µM), a solubility at 2 h (binary solvent composition (main solvent and co-solvent), solvent system D10 of Table 7, read-out: Approximate Measured Solubility) of 560 µg/mL (≈ 2050 µM) and a solubility at 2 h (binary solvent composition (main solvent and co-solvent), solvent system D11 of Table 7, read-out: Approximate Measured Solubility) of 1160 µg/mL (≈ 4250 µM). It also gave a solubility at 2 h (binary solvent composition (main solvent and co-solvent), solvent system D12 of Table 7, read-out: Approximate Measured Solubility) of 670 µg/mL (≈ 2450 µM), a solubility at 2 h (binary solvent mixture (main solvent and co-solvent), solvent system D9 of Table 7, read-out: Approximate Measured Solubility) of 1630 µg/mL (≈ 5970 µM) and a solubility at 2 h (binary solvent mixture (main solvent and co-solvent), solvent system E1 of Table 7, read-out: Approximate Measured Solubility) of 1600 µg/mL (≈ 5860 µM). For the same molecule, the solubility at 2 h (binary solvent mixture (main solvent and co-solvent), solvent system E2 of Table 7, read-out: Approximate Measured Solubility) was 690 µg/mL (≈ 2530 µM), the solubility at 2 h (binary solvent mixture (main solvent and co-solvent), solvent system E3 of Table 7, read-out: Approximate Measured Solubility) was 320 µg/mL (≈ 1170 µM) and the solubility at 2 h (binary solvent mixture (main solvent and co-solvent), solvent system E4 of Table 7, read-out: Approximate Measured Solubility) was 130 µg/mL (≈ 476 µM). The solubility at 2 h (binary solvent mixture (main solvent and co-solvent), solvent system E5 of Table 7, read-out: Approximate Measured Solubility) was 20 µg/mL (≈ 73.2 µM) and the solubility at 2 h (binary solvent mixture (main solvent and co-solvent), solvent system E7 of Table 7, read-out: Approximate Measured Solubility) was 20 µg/mL (≈ 73.2 µM).

Source: patent EP2815749A1, “Solid form of 4-amino-2-(2,6-dioxopiperidine-3-yl)isoindoline-1,3-dione having specified X-ray diffraction pattern” (IP Gesellschaft für Management mbH, priority 2013, dated 2014)
